The source of these data is patent US20190337927A1, “PHOTOPROTECTIVE COMPOSITIONS CONTAINING MALASSEZIA-DERIVED COMPOUNDS AND/OR CHEMICAL ANALOGS THEREOF” (priority 2018, published 2019).

In data set [1] the target is T1, arylhydrocarbon receptor (AhR) (Homo sapiens, UniProt P35869).
T1 sequence (P35869 11-848): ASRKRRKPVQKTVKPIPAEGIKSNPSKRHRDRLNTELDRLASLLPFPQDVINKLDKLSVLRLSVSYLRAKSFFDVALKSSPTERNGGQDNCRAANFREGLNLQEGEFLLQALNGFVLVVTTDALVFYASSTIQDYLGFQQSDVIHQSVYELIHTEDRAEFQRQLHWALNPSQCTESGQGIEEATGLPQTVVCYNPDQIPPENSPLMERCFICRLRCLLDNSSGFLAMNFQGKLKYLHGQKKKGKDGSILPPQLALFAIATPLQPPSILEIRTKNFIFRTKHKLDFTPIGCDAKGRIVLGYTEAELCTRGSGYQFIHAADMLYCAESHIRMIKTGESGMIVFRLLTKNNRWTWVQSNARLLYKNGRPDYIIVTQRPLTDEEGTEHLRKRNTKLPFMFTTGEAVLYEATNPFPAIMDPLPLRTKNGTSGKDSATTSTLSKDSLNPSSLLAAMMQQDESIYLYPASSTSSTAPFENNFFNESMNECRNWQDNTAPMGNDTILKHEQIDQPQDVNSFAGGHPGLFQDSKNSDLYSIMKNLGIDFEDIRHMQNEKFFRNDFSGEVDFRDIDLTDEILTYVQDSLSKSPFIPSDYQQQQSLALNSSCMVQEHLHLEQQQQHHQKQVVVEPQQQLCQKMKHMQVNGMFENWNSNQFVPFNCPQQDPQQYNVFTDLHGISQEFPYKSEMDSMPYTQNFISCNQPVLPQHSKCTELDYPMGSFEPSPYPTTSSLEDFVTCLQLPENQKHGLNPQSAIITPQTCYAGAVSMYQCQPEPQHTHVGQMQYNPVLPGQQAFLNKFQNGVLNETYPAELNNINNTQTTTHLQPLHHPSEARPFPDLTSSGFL
The conditions noted are these: cited from earlier work.

The conditions of data set [2]: cited from earlier work.
The test system of data set [3] is staphylococci. As to conditions: cited from earlier work.
For data set [4], the system named is Candida albicans. As to conditions: cited from earlier work.
Data set [5] deals with yeast model. As to conditions: cited from earlier work.
For data set [6], the system named is primary human melanocytes. The conditions noted are these: cited from earlier work.
Data set [7] relates to Skin Type IV female. Kind of data set: In vivo photoprotection proof of concept study: UVB-induced erythema after topical treatment. Further details: species or system human. The conditions noted are these: one subject. An excerpt:
The Malassezin 1% formulation used in this study contained the following ingredients: Water (aqua)—65.939%; Dimethyl isosorbide—20.000%; Olive Oil Glycereth-8 Esters—3.000%; Glycerin—2.991%; Coconut Alkanes—2.700%; Hydroxyethyl Acrylate/Sodium Acryloyldimethyl Taurate Copolymer—1.700%; Malassezin—1.000%; Pentylene Glycol—1.000%; Phenoxyethanol—0.640%; Coco-Caprylate/Caprate—0.300%; Caprylyl Glycol—0.200%; Chlorphenesin—0.160%; Sorbitan Isostearate—0.140%; Tocopherl—0.100%; Polysorbate 60—0.080%; and Disodium EDTA—0.050%.
A Skin Type IV […] was included in this Proof of Concept study.
A template of 6 squares was placed on the lower left back (1.5 cm×1.5 cm) of the test subject See FIG. 7.
Twenty-four hours after irradiation, the subject returned for MED assessment.
A second right lower square was treated twice daily from day 4 to day 7, and a third medial square for one application on day 7. The product vehicle was applied for 7 days twice daily on the left back. The subject returned to the research center for irradiation on day 7. Each test site was irradiated with 120 mJ of UVB exposure. The subject returned in 24 hours for assessment of phototoxicity/photoprotection.
The subject continued the experiment, receiving Malassezin 1% for a total of 14 days. […]

Where two headings read alike, the source gives them in different places.

Consider `O=C1Nc2ccccc2/C1=C1/Nc2ccccc2C1=O` [Indirubin], for which the AhR activity result in data set [1] is listed as “agonist”.

As to `O=C(c1c[nH]c2ccccc12)c1nccc2c1[nH]c1ccccc12` [Pityriacitrin], the “UV protective effect overall” value in data set [2] (in vitro and in vivo tests in humans) is given as “very weak”. Besides, the “sun protection factor (SPF)” value is on record as 1.4 in data set [2] (pityriacitrin concentration 1.25% in cream), 1.5 in data set [2] (pityriacitrin concentration 2.5% in cream) and 1.7 in data set [2] (pityriacitrin concentration 5% in cream). In addition, the UV-protective effect entry in data set [3] and in data set [4] was “UV-protective effect” throughout. Also, the toxicity result in data set [3] (ranges tested) and in data set [4] (ranges tested) was “no toxicity” throughout.

For `O=C1OC(c2c[nH]c3ccccc23)=C(c2c[nH]c3ccccc23)C1=O` [Pityrialactone], the UV protective properties result in data set [5] is recorded as “confirmed”.

In the case of `O=Cc1c(Cc2c[nH]c3ccccc23)[nH]c2ccccc12` [Malassezin, 2-(1H-indol-3-ylmethyl)-1H-indole-3-carbaldehyde], in data set [1], the AhR activity result is recorded as “agonist”. For the same molecule, the apoptosis induction entry in data set [6] is reported as “induces apoptosis”. The “UV-protective properties, study conclusion” value in data set [7] was “UV-protective properties”.
